Reference: patent publication US11286268B1, “EIF4E-inhibiting compounds and methods” (EFFECTOR THERAPEUTICS, INC., priority 2019, dated 2022)
Like-named read-outs stand apart in the source and are kept apart here.

Target: recombinant eIF4E (Homo sapiens (Human), UniProt P06730)
Assay: Fluorescence polarization competition assay for eIF4E binding potency
Description: Compounds were screened for eIF4E binding potency using a fluorescence polarization competition assay. All binding reactions were performed in fluorescence polarization buffer (FPB) containing 20 mM Tris pH 7.5, 100 mM NaCl, 1 mM DTT, and 0.02% Tween-20. Final binding reactions contained 75 nM recombinant eIF4E (Beryllium, custom order), 20 nM EDA-m^7GDP-ATTO-550 (Jena Bioscience, NU-827-550) and varying concentrations of the inhibitory compound of interest. Final DMSO concentration in each reaction was 1%.
eIF4E protein was pre-incubated with EDA-m^7GDP-ATTO-550 in FPB at 2× concentrations for 5 minutes prior to the addition of compounds. Compounds (100×) were prepared using 3-fold serial dilutions in 100% DMSO, and subsequently diluted 1:50 in FPB to produce 2× stocks. 50 μl of 2× eIF4E/EDA-m^7GDP-ATTO-550 were transferred to the wells of a 96-well half-area black flat bottom polystyrene plate. 50 μl of 2× test compound were added, and binding reactions were allowed to equilibrate for 30 minutes at room temperature while protected from light. The fluorescent polarization signal was detected using a Victor 2 multi-label counter (Perkin Elmer) and the concentration necessary to achieve inhibition of eIF4E/EDA-m^7GDP-ATTO-550 binding by 50% (IC50) was calculated using data from an 8-point compound dilution series.
In Table 4A, IC50 values of less than 0.05 μM are labelled as “+++”, from 1 to 0.05 μM are labelled as “++”, and greater than 1 μM are labelled as “+”. ND=not determined.

[1] = fluorescence polarization competition, 75 nM recombinant eIF4E, 20 nM EDA-m7GDP-ATTO-550, IC50 class, read-out: elF4E FP
[2] = inhibition of eIF4E/EDA-m7GDP-ATTO-550 binding by 50%, Table 4B calculated values, read-out: IC50

Chain of recombinant eIF4E (P06730 whole entry): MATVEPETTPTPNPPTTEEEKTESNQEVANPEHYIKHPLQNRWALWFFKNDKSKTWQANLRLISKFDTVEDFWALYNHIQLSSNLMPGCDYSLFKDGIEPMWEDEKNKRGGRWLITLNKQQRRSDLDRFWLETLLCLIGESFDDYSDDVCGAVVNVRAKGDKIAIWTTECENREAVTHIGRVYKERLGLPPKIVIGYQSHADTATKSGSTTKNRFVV

| Structure (SMILES) | IC50 [1] [µM] | IC50 [2] [µM] |
| --- | --- | --- |
| Cc1nc2ccc(C(F)F)c(C#N)c2c(=O)n1CCOc1ccc(Cl)cc1-c1ccnc2c(C(=O)O)csc12 [compound 160] | < 0.05 | 0.00883 |
| N#Cc1c(C(F)F)ccc2ncn(CCOc3ccc(Cl)cc3-c3ccnc(C(=O)O)c3)c(=O)c12 [compound 161] | 0.05 to 1 |  |
| N#Cc1cc(C(F)(F)F)cc2ncn(CCOc3ccc(Cl)cc3-c3ccnc(C(=O)O)c3)c(=O)c12 [compound 162] | < 0.05 | 0.0287 |
| C#Cc1c(-c2cc(Cl)ccc2OCCn2c(C(F)F)nc3cccc(C#N)c3c2=O)ccnc1C(=O)O [compound 163] | 0.05 to 1 | 0.0955 |
| N#Cc1cc(C(F)(F)F)cc2ncn(CCOc3ccc(Cl)cc3-c3ccnc4c(C(=O)O)csc34)c(=O)c12 [compound 164] |  | 0.0164 |
| C#Cc1c(C(=O)O)cccc1-c1cc(Cl)ccc1OCCn1c(C(F)F)nc2cccc(C#N)c2c1=O [compound 165] | 0.05 to 1 | 0.106 |
| N#Cc1cccc2nc(C(F)F)n(CCOc3ccc(Cl)cc3-c3ccnc(C(=O)O)c3)c(=O)c12 [compound 166] | < 0.05 | 0.035 |
| Cc1nc2cc(F)cc(C#N)c2c(=O)n1CCOc1ccc(Cl)cc1-c1cccc(C(=O)O)c1 [compound 167] | 0.05 to 1 | 0.101 |
| Cc1nc2cc(C(F)(F)F)cc(C#N)c2c(=O)n1CCOc1ccc(Cl)cc1-c1cccc(C(=O)O)c1C#N [compound 168] | < 0.05 | 0.0372 |
| C=Cc1c(C(=O)O)cccc1-c1cc(Cl)ccc1OCCn1c(C)nc2cc(C(F)(F)F)cc(C#N)c2c1=O [compound 169] | 0.05 to 1 | 0.234 |
| O=C(O)c1cccc(-c2cc(Cl)ccc2OCCc2cccc3nc[nH]c(=O)c23)c1 [compound 170] | 0.05 to 1 | 0.845 |
| CNc1nc2c(F)ccc(CCOc3ccc(Cl)cc3-c3cccc(C(=O)O)c3)c2c(=O)[nH]1 [compound 171] | 0.05 to 1 | 0.194 |
| CNc1nc2c(F)c(F)cc(CCOc3ccc(Cl)cc3-c3cccc(C(=O)O)c3)c2c(=O)[nH]1 [compound 172] | 0.05 to 1 | 0.0923 |
| O=C(O)c1cccc(-c2cc(Cl)ccc2OCCc2cnc(C(F)F)c3nc(Nc4ccccc4)[nH]c(=O)c23)c1 [compound 173] | 0.05 to 1 | 0.141 |
| N#Cc1c(F)cc(CCOc2ccc(Cl)cc2-c2cccc(C(=O)O)c2)c2c(=O)[nH]c(Nc3ccccc3)nc12 [compound 174] | 0.05 to 1 | 0.0521 |
| N#Cc1cn(CCOc2ccc(Cl)cc2-c2ccnc3c(C(=O)O)csc23)c2c(=O)[nH]c(Nc3ccccc3)nc12 [compound 175] | < 0.05 | 0.0204 |
| O=C(O)c1cccc(-c2cc(Cl)ccc2OCCc2ccnc3nc(Nc4ccccc4)[nH]c(=O)c23)c1 [compound 176] | < 0.05 | 0.0415 |
| N#Cc1ncc(CCOc2ccc(Cl)cc2-c2cccc(C(=O)O)c2)c2c(=O)[nH]c(NCC(F)(F)F)nc12 [compound 177] | < 0.05 | 0.0268 |
| O=C(O)c1cccc(-c2cc(Cl)ccc2OCCc2cc(C(F)(F)F)nc3nc(Nc4ccccc4)[nH]c(=O)c23)c1 [compound 178] | 0.05 to 1 | 0.14 |
| N#Cc1ncc(CCOc2ccc(Cl)cc2-c2cccc(C(=O)O)c2)c2c(=O)[nH]c(Nc3ccccc3)nc12 [compound 179] | < 0.05 | 0.0206 |
| Cc1c(CCOc2ccc(Cl)cc2-c2ccnc3c(C(=O)O)csc23)c(=O)c2c(C#N)cc(C(F)(F)F)cc2n1C [compound 180] | < 0.05 | 0.0477 |
| N#Cc1cc(C(F)(F)F)cc2nc(CF)n(CCOc3ccc(Cl)cc3-c3ccnc4c(C(=O)O)csc34)c(=O)c12 [compound 181] | 0.05 to 1 | 0.0623 |
| N#Cc1cc(C(F)(F)F)cc2nc(CF)n(CCOc3ccc(Cl)cc3-c3cccc(C(=O)O)c3)c(=O)c12 [compound 182] | < 0.05 | 0.0438 |
| Cc1nc2c(C(C)C)nc(N3CCN(CCF)CC3)c(C#N)c2c(=O)n1CCOc1ccc(Cl)cc1-c1ccnc2c(C(=O)O)csc12 [compound 183] | 0.05 to 1 | 0.0502 |
| N#Cc1cncc2ncn(CCOc3ccc(Cl)cc3-c3ccc(C(=O)O)c(CCCCC(O)CO)c3)c(=O)c12 (stereo not drawn) [compound 184] | 0.05 to 1 |  |
| N#Cc1cc(C(F)(F)F)cc2nc(C#N)n(CCOc3ccc(Cl)cc3-c3cccc(C(=O)O)c3)c(=O)c12 [compound 185] | 0.05 to 1 | 0.0949 |

| Structure (SMILES) | IC50 [1] [µM] | IC50 [2] [µM] |
| --- | --- | --- |
| N#Cc1cc(C(F)(F)F)cc2nc(O)n(CCOc3ccc(Cl)cc3-c3cccc(C(=O)O)c3)c(=O)c12 [compound 186] | 0.05 to 1 | 0.344 |
| N#Cc1cc(C(F)(F)F)cc2nc(Cl)n(CCOc3ccc(Cl)cc3-c3cccc(C(=O)O)c3)c(=O)c12 [compound 187] | < 0.05 | 0.0483 |
| N#Cc1c(C(F)F)ccc2nc(C(F)F)n(CCOc3ccc(Cl)cc3-c3ccnc4c(C(=O)O)csc34)c(=O)c12 [compound 188] | 0.05 to 1 | 0.0632 |
| N#Cc1cccc2nc(C(F)F)n(CCOc3ccc(Cl)cc3-c3nccc4c(C(=O)O)csc34)c(=O)c12 [compound 189] | > 1 | 1.57 |
| N#Cc1cccc2nc(C(F)F)n(CCOc3ccc(Cl)cc3-c3ccc(C(=O)O)c4cnsc34)c(=O)c12 [compound 190] | 0.05 to 1 | 0.301 |
| N#Cc1cccc2nc(C(F)F)n(CCOc3ccc(Cl)cc3-c3ccc(C(=O)O)c4ccsc34)c(=O)c12 [compound 191] | 0.05 to 1 | 0.144 |
| N#Cc1cccc2nc(C(F)F)n(CCOc3ccc(Cl)cc3-c3cncn(CC(=O)O)c3=S)c(=O)c12 [compound 192] | > 1 | 1.31 |
| Cc1nc2cc(S(C)(=O)=O)cc(C#N)c2c(=O)n1CCOc1ccc(Cl)cc1-c1ccnc2c(C(=O)O)csc12 [compound 194] | < 0.05 | 0.0358 |
| Cc1nc2ccc(S(C)(=O)=O)c(C#N)c2c(=O)n1CCOc1ccc(Cl)cc1-c1ccnc2c(C(=O)O)csc12 [compound 195] | < 0.05 | 0.0274 |
| Cc1nc2ccc(S(=O)(=O)N(C)C)c(C#N)c2c(=O)n1CCOc1ccc(Cl)cc1-c1ccnc2c(C(=O)O)csc12 [compound 196] | < 0.05 | 0.0257 |
| Cc1nc2c(C#N)cc(C(F)F)c(C#N)c2c(=O)n1CCOc1ccc(Cl)cc1-c1ccnc2c(C(=O)O)csc12 [compound 197] | 0.05 to 1 | 0.0524 |
| Cc1nc2cc(C(F)(F)F)cc(Cl)c2c(=O)n1CCOc1ccc(Cl)cc1-c1ccnc2c(C(=O)O)csc12 [compound 198] | 0.05 to 1 | 0.124 |
| Cc1nc2cc(C(F)(F)F)cc(C#N)c2c(=O)n1CCOc1ccc(Cl)cc1-c1ccnc2cc(C(=O)O)sc12 [compound 199] | 0.05 to 1 | 0.143 |
| Cc1nc2cc(Cl)cc(C#N)c2c(=O)n1CCOc1ccc(Cl)cc1-c1ccnc2c(C(=O)O)csc12 [compound 200] | < 0.05 | 0.0435 |
| Cc1nc2cc(C(F)(F)F)cc(C#N)c2c(=O)n1CCOc1ccc(Cl)cc1-c1cc(C(=O)O)nc2ccsc12 [compound 201] | 0.05 to 1 | 0.354 |
| Cc1nc2cc(C(F)(F)F)cc(C#N)c2c(=O)n1CCOc1ccc(Cl)cc1-c1ccnc2c(CC(=O)O)csc12 [compound 202] | < 0.05 | 0.0474 |
| Cc1nc2cc(C(F)(F)F)cc(C#N)c2c(=O)n1CCOc1ccc(Cl)cc1-c1csc2c(C(=O)O)csc12 [compound 203] | 0.05 to 1 | 0.0806 |
| Cc1nc2c(-c3cncnc3)ccc(C#N)c2c(=O)n1CCOc1ccc(Cl)cc1-c1ccnc2c(C(=O)O)csc12 [compound 204] | < 0.05 | 0.0444 |
| Cc1sc2c(-c3cc(Cl)ccc3OCCn3c(C)nc4cc(C(F)(F)F)cc(C#N)c4c3=O)ccnc2c1C(=O)O [compound 205] | 0.05 to 1 | 0.101 |
| Cc1nc2cc(Cl)c(Cl)c(C#N)c2c(=O)n1CCOc1ccc(Cl)cc1-c1ccnc2c(C(=O)O)csc12 [compound 207] | < 0.05 | 0.0213 |
| Cc1nc2cc(Cl)c(Cl)c(Cl)c2c(=O)n1CCOc1ccc(Cl)cc1-c1ccnc2c(C(=O)O)csc12 [compound 208] | 0.05 to 1 | 0.103 |
| Cc1nc2c(Cl)cc(Cl)c(C#N)c2c(=O)n1CCOc1ccc(Cl)cc1-c1ccnc2c(C(=O)O)csc12 [compound 209] | < 0.05 | 0.047 |
| Cc1nc2c(C#N)c(C(F)(F)F)cc(C#N)c2c(=O)n1CCOc1ccc(Cl)cc1-c1ccnc2c(C(=O)O)csc12 [compound 210] | 0.05 to 1 | 0.091 |
| C#Cc1ccc(C#N)c2c(=O)n(CCOc3ccc(Cl)cc3-c3ccnc4c(C(=O)O)csc34)c(C)nc12 [compound 211] | < 0.05 | 0.0354 |
| Cc1nc2cc(C#N)cc(C#N)c2c(=O)n1CCOc1ccc(Cl)cc1-c1ccnc2c(C(=O)O)csc12 [compound 212] | < 0.05 | 0.04 |
